The record followed here is patent US20230150953A1, “SUBSTITUTED ISOPHTHALIC ACID DIAMIDES” (Bayer Aktiengesellschaft, priority 2020, published 2023).

Molecules are shown by their SMILES.

Format in all cases: in vivo
In experiment [1] the test system is AMARE Amaranthus retroflexus. In words: Post-emergence herbicidal action against harmful plants. Particulars: one-leaf stage, assessed visually after about 3 weeks vs untreated controls. The text has this:
(§1) The abbreviations used for the harmful plants mean: • ABUTH Abutilon theophrasti ALOMY Alopecurus myosuroides • AVEFA Avena fatua AMARE Amaranthus retroflexus • CYPES Cyperus esculentus DIGSA Digitaria sanguinalis • ECHCG Echinochloa crus-galli HORMU Hordeum murinum • LOLMU Lolium multiflorum LOLRI Lolium rigidum • MATIN Matricaria inodora PHBPU Pharbitis purpurea • POLCO Polygonum convolvulus SETVI Setaria viridis • STEME Stellaria media VERPE Veronica persica • VIOTR Viola tricolor 2. Post-Emergence Herbicidal Action Against Harmful Plants Seeds of monocotyledonous and dicotyledonous weed and crop plants are laid out in sandy loam soil in wood-fiber pots, covered with soil and cultivated in a greenhouse under good growth conditions. 2 to 3 weeks after sowing, the test plants are treated at the one-leaf stage. The compounds of the invention, formulated in the form of wettable powders (WP) or as emulsion concentrates (EC), are then sprayed onto the green parts of the plants in the form of an aqueous suspension or emulsion at a water application rate equivalent to 600 to 800 l/ha, with addition of 0.2% wetting agent. After the test plants have been left to stand in the greenhouse under optimal growth conditions for about 3 weeks, the action of the preparations is assessed visually in comparison to untreated controls (herbicidal action in percent (%): 100% activity=the plants have died, 0% activity=like control plants). […] The tables below illustrate, in an illustrative manner, the post-emergence herbicidal action of the compounds of the invention, the herbicidal activity being stated in percent.

Experiment [2] concerns ABUTH Abutilon theophrasti. The experiment is described as above. To be noted: one-leaf stage, assessed visually after about 3 weeks vs untreated controls.
Text: as §1

The subject of experiment [3] is AMARE Amaranthus retroflexus. Kind of experiment: Pre-emergence herbicidal action against harmful plants. To be noted: scored visually after 3 weeks vs untreated controls. The source says: (§2) The abbreviations used for the harmful plants mean: • ABUTH Abutilon theophrasti ALOMY Alopecurus myosuroides • AVEFA Avena fatua AMARE Amaranthus retroflexus • CYPES Cyperus esculentus DIGSA Digitaria sanguinalis • ECHCG Echinochloa crus-galli HORMU Hordeum murinum • LOLMU Lolium multiflorum LOLRI Lolium rigidum • MATIN Matricaria inodora PHBPU Pharbitis purpurea • POLCO Polygonum convolvulus SETVI Setaria viridis • STEME Stellaria media VERPE Veronica persica • VIOTR Viola tricolor 1. Pre-Emergence Herbicidal Action Against Harmful Plants Seeds of monocotyledonous and dicotyledonous weed plants and crop plants are laid out in sandy loam soil in wood-fiber pots and covered with soil. The compounds of the invention, formulated in the form of wettable powders (WP) or as emulsion concentrates (EC), are then applied to the surface of the covering soil in the form of an aqueous suspension or emulsion at a water application rate equivalent to 600 to 800 l/ha, with addition of 0.2% wetting agent. After the treatment, the pots are placed in a greenhouse and kept under good growth conditions for the trial plants. The damage to the test plants is scored visually after a test period of 3 weeks by comparison with untreated controls (herbicidal activity in percent (%): 100% activity=the plants have died, 0% activity=like control plants). […] The tables below illustrate, in an illustrative manner, the post-emergence herbicidal action of the compounds of the invention, the herbicidal activity being stated in percent.

Experiment [4] deals with MATIN Matricaria inodora. The description is as above. Particulars: scored visually after 3 weeks vs untreated controls.
Text: as §2

Experiment [5] deals with ABUTH Abutilon theophrasti. Described as above. Particulars: scored visually after 3 weeks vs untreated controls.
Text: as §2

Experiment [6] has as its system DIGSA Digitaria sanguinalis. The description is as above. To be noted: scored visually after 3 weeks vs untreated controls.
Text: as §2

Experiment [7] concerns MATIN Matricaria inodora. Kind of experiment: Post-emergence herbicidal action against harmful plants. Particulars: one-leaf stage, assessed visually after about 3 weeks vs untreated controls.
Text: as §1

The subject of a further experiment is VERPE Veronica persica. In words: Pre-emergence herbicidal action against harmful plants. Particulars: scored visually after 3 weeks vs untreated controls.
Text: as §2

For experiment [8], the system named is ECHCG Echinochloa crus-galli. The description is as above. To be noted: scored visually after 3 weeks vs untreated controls.
Text: as §2

The subject of a further experiment is SETVI Setaria viridis. Kind of experiment: Post-emergence herbicidal action against harmful plants. To be noted: one-leaf stage, assessed visually after about 3 weeks vs untreated controls.
Text: as §1

For experiment [9], the system named is POLCO Polygonum convolvulus. In words: Pre-emergence herbicidal action against harmful plants. To be noted: 80 g/ha, scored visually after 3 weeks vs untreated controls.
Text: as §2

Regarding `CNC(=O)c1c(C(F)(F)F)cc(F)c(C(=O)Nc2nnnn2C)c1Cl` [Example 1-180], in experiment [1], the “Post-emergence action at 5 g/ha against AMARE in %” value is recorded as 80% and the “Post-emergence action at 20 g/ha against AMARE in %” value was found to be 90%. The “Post-emergence action at 20 g/ha against ABUTH in %” value in [2] amounted to 90%. For the same compound, in experiment [3], the “Pre-emergence action at 20 g/ha against AMARE in %” value worked out at 100% and the “Pre-emergence action at 80 g/ha against AMARE in %” value is 100%. For the same compound, the “Pre-emergence action at 80 g/ha against MATIN in %” value in the experiment with MATIN Matricaria inodora [4] is recorded as 100%. The “Pre-emergence action at 80 g/ha against ABUTH in %” value in experiment [5] amounted to 100%. Further, in experiment [6], the “Pre-emergence action at 20 g/ha against DIGSA in %” value is 80% and the “Pre-emergence action at 80 g/ha against DIGSA in %” value was 80%.
As for `CCn1nnnc1NC(=O)c1c(F)cc(C(F)(F)F)c(C(=O)N(C)C2CC2)c1C` [Example 2-97], the “Post-emergence action at 20 g/ha against MATIN in %” value in the experiment on MATIN Matricaria inodora [7] was found to be 80%. In the experiment on VERPE Veronica persica (20 g/ha), the “Pre-emergence action at 20 g/ha against VERPE in %” value is 80%. The “Pre-emergence action at 80 g/ha against VERPE in %” value in the experiment with VERPE Veronica persica (80 g/ha) is listed as 80%. Further, the “Pre-emergence action at 80 g/ha against ECHCG in %” value in experiment [8] amounted to 80%. Moreover, in experiment [3], the “Pre-emergence action at 20 g/ha against AMARE in %” value is reported as 100% and the “Pre-emergence action at 80 g/ha against AMARE in %” value came out at 100%. Moreover, in the experiment on MATIN Matricaria inodora [4], the “Pre-emergence action at 20 g/ha against MATIN in %” value came out at 90% and the “Pre-emergence action at 80 g/ha against MATIN in %” value came out at 100%. Further, in experiment [5] (20 g/ha), the “Pre-emergence action at 20 g/ha against ABUTH in %” value turned out to be 100%. In addition, the “Pre-emergence action at 80 g/ha against ABUTH in %” value in experiment [5] worked out at 100%. Besides, in experiment [6], the “Pre-emergence action at 20 g/ha against DIGSA in %” value is on record as 90% and the “Pre-emergence action at 80 g/ha against DIGSA in %” value came out at 100%.
Turning to `CCNC(=O)c1c(C(F)(F)F)cc(F)c(C(=O)Nc2nnnn2C)c1Cl` [Example 1-181], in experiment [1], the “Post-emergence action at 5 g/ha against AMARE in %” value is 90% and the “Post-emergence action at 20 g/ha against AMARE in %” value was determined as 90%. The “Post-emergence action at 20 g/ha against ABUTH in %” value in experiment [2] was determined as 90%. In [3], the “Pre-emergence action at 20 g/ha against AMARE in %” value turned out to be 100% and the “Pre-emergence action at 80 g/ha against AMARE in %” value was 100%. Further, in the experiment on MATIN Matricaria inodora [4], the “Pre-emergence action at 80 g/ha against MATIN in %” value came out at 100%. The “Pre-emergence action at 80 g/ha against ABUTH in %” value in experiment [5] was found to be 100%. Further, the “Pre-emergence action at 80 g/ha against DIGSA in %” value in [6] is given as 80%.
With `CCn1nnnc1NC(=O)c1c(F)cc(C(F)(F)F)c(C(=O)NCC(F)F)c1C` [Example 2-385], in [1], the “Post-emergence action at 5 g/ha against AMARE in %” value was 80% and the “Post-emergence action at 20 g/ha against AMARE in %” value worked out at 90%. The “Post-emergence action at 20 g/ha against SETVI in %” value in the experiment on SETVI Setaria viridis amounted to 80%. Besides, in experiment [8], the “Pre-emergence action at 80 g/ha against ECHCG in %” value was 80%. Also, in experiment [3], the “Pre-emergence action at 80 g/ha against AMARE in %” value was found to be 100%. In addition, the “Pre-emergence action at 80 g/ha against POLCO in %” value in [9] is given as 90%. Further, in the experiment with MATIN Matricaria inodora [4], the “Pre-emergence action at 20 g/ha against MATIN in %” value was determined as 80% and the “Pre-emergence action at 80 g/ha against MATIN in %” value came out at 90%. In addition, the “Pre-emergence action at 80 g/ha against ABUTH in %” value in experiment [5] was 100%. For the same compound, in experiment [6], the “Pre-emergence action at 20 g/ha against DIGSA in %” value amounted to 90% and the “Pre-emergence action at 80 g/ha against DIGSA in %” value is 100%.
